# According to ChEMBL document CHEMBL5579852, “Promising anti-proliferative indolic benzenesulfonamides alter mechanisms with sulfonamide nitrogen substituents” (Eur J Med Chem, 2024):
# Calls of active or inactive are those of the source. No cut-off for these calls is given here.
# Columns and labels:
# MES-SA [1] = experiment: Antiproliferative activity against human MES-SA cells assessed as reduction in cell viability incubated for 72 hrs by CelltiterGlo luminescent assay
# [2] = Antiproliferative activity against human WM1366 cells assessed as reduction in cell viability incubated for 72 hrs by CelltiterGlo luminescent assay; details: WM1366, 72 h
# A-375 = experiment: Antiproliferative activity against human A-375 cells assessed as reduction in cell viability incubated for 72 hrs by CelltiterGlo luminescent assay; details: A-375, 72 h
# MES-SA [3] = experiment: Cell cycle distribution in human MES-SA cells assessed as accumulation of cells in G1 phase cells at 100 nM incubated for 24 hrs by Hoechst 33258 staining based flow cytometry (reference value: 60%); type: functional
# HT-1080 = experiment: Antiproliferative activity against human HT-1080 cells assessed as reduction in cell viability incubated for 72 hrs by CelltiterGlo luminescent assay; details: HT-1080, 72 h
# [4] = Antiproliferative activity against human RPE-1 cells assessed as reduction in cell viability incubated for 72 hrs by CelltiterGlo luminescent assay; type: toxicity, cell-based; details: RPE-1 cells (TERT-RPE1)
# MDA-MB-468 = experiment: cells; details: Homo sapiens, MDA-MB-468, 72 h
# Description: Antiproliferative activity against human MDA-MB-468 cells assessed as reduction in cell viability incubated for 72 hrs by CelltiterGlo luminescent assay
# MES-SA [5] = experiment: Induction of apoptosis in human MES-SA cells assessed as live cells at 100 nM incubated for 24 hrs by live/dead orange and TUNEL staining based flow cytometry analysis relative to control; type: functional
# HeLa [6] = experiment: Antiproliferative activity against human HeLa cells assessed as reduction in cell viability incubated for 72 hrs by CelltiterGlo luminescent assay; type: functional, cell-based
# Tubulin (Homo sapiens) = Tubulin (Homo sapiens) (UniProt P68371+Q9H4B7+P0DPH7+P68366+Q13509+Q71U36+P04350+Q3ZCM7+P07437+P68363+Q9BQE3+Q6PEY2+Q13885+Q9BVA1+Q9BUF5); experiment: Inhibition of tubulin polymerization in human MES-SA cells assessed as appearance of spherical shaped cells at 10 nM incubated for 24 hrs by DAPI staining based confocal microscopy analysis; type: cell-based
# MES-SA [7] = experiment: Cell cycle distribution in human MES-SA cells assessed as accumulation of cells in S phase cells at 100 nM incubated for 24 hrs by Hoechst 33258 staining based flow cytometry (reference value: 27 %); type: functional
# cells = details: Homo sapiens, MDA-MB-468, 72 h
# HeLa [8] = experiment: Antiproliferative activity against human HeLa cells assessed as inhibition of cell growth incubated for 72 hrs in absence of verapamil by MTT assay; type: functional, cell-based
# MCF7 = experiment: Antiproliferative activity against human MCF7 cells assessed as reduction in cell viability incubated for 72 hrs by CelltiterGlo luminescent assay; type: functional, cell-based; details: MCF7, 72 h
# CAKI-1 [9] = experiment: Antiproliferative activity against human CAKI-1 cells assessed as reduction in cell viability incubated for 72 hrs by CelltiterGlo luminescent assay
# MES-SA [10] = experiment: Cell cycle distribution in human MES-SA cells assessed as accumulation of cells in G2 phase cells at 100 nM incubated for 24 hrs by Hoechst 33258 staining based flow cytometry (reference value: 12 %); type: functional
# MES-SA [11] = experiment: Cell cycle distribution in human MES-SA cells assessed as accumulation of cells in G2/M phase cells at 100 nM incubated for 24 hrs by Hoechst 33258 staining based flow cytometry (reference value: 13.3 %); type: functional
# MES-SA [12] = experiment: Induction of apoptosis in human MES-SA cells assessed as increase in caspase 3/7 activation at 100 nM by live-cell imaging based fluorescence assay; type: functional; details: time 3.0 day, TDE = time-dependent effect
# HeLa [13] = experiment: Antiproliferative activity against human HeLa cells assessed as reduction in cell viability incubated for 72 hrs by MTT assay; type: functional, cell-based
# [14] = Antiproliferative activity against human Hermes 3C cells assessed as reduction in cell viability incubated for 72 hrs by CelltiterGlo luminescent assay; type: toxicity, cell-based
# MES-SA [15] = experiment: Induction of apoptosis in human MES-SA cells assessed as apoptotic cells at 100 nM incubated for 24 hrs by live/dead orange and TUNEL staining based flow cytometry analysis relative to control; type: functional
# BT-474 = experiment: Antiproliferative activity against human BT-474 cells assessed as reduction in cell viability incubated for 72 hrs by CelltiterGlo luminescent assay; details: BT-474, 72 h
# MES-SA [16] = experiment: Induction of apoptosis in human MES-SA cells assessed as late apoptotic cells at 100 nM incubated for 24 hrs by live/dead orange and TUNEL staining based flow cytometry analysis relative to control; type: functional
# [17] = Antiproliferative activity against human HEK293 cells assessed as reduction in cell viability incubated for 72 hrs by CelltiterGlo luminescent assay; type: toxicity, cell-based
# HeLa [18] = experiment: Antiproliferative activity against human HeLa cells assessed as inhibition of cell growth incubated for 72 hrs in presence of verapamil by MTT assay; type: functional, cell-based
# MES-SA [19] = experiment: Induction of apoptosis in human MES-SA cells assessed as necrotic cells at 100 nM incubated for 24 hrs by live/dead orange and TUNEL staining based flow cytometry analysis relative to control; type: functional
# MES-SA [20] = experiment: Cell cycle distribution in human MES-SA cells assessed as accumulation of cells in M phase cells at 100 nM incubated for 24 hrs by Hoechst 33258 staining based flow cytometry (reference value: 1.3 %); type: functional
# [21] = Antiproliferative activity against human Melmet 5 cells assessed as reduction in cell viability incubated for 72 hrs by CelltiterGlo luminescent assay; details: Melmet 5, 72 h
# CAKI-1 [22] = experiment: Antiproliferative activity against human CAKI-1 cells assessed as reduction in cell viability incubated for 72 hrs by CelltiterGlo luminescent assay; details: CAKI-1, 72 h
# MES-SA [23] = experiment: Induction of apoptosis in human MES-SA cells assessed as caspase 3/7 activation at 1 uM incubated for 24 hrs by live-cell imaging based fluorescence assay; type: functional
# MES-SA [24] = experiment: Induction of apoptosis in human MES-SA cells assessed as caspase 3/7 activation at 1 uM incubated for 48 to 72 hrs by live-cell imaging based fluorescence assay; type: functional; details: time lower […], time upper 72.0 hrs
SMILES,IC50 (MES-SA [1]),IC50 [2],IC50 (A-375),Activity (MES-SA [3]),IC50 (HT-1080),IC50 at 72 h [4],IC50 (MDA-MB-468),Activity (MES-SA [5]),IC50 (HeLa [6]),inhibition (Tubulin (Homo sapiens)),Activity (MES-SA [7]),IC50 (cells),IC50 (HeLa [8]),IC50 (MCF7),Activity (MES-SA [10]),Activity (MES-SA [11]),Activity (MES-SA [12]),IC50 (HeLa [13]),IC50 at 72 h [14],Activity (MES-SA [15]),also measured
COc1cc(S(=O)(=O)N(C)c2ccc3c(c2)c(C#N)cn3C)cc(OC)c1OC,6.3 nM,20.2 nM,11.7 nM,4%,15.3 nM,13.2 nM,28 nM,91.4%,16 nM,Active,6%,69.5 nM,25.7 nM,12.3 nM,10%,83.6%,Tde,8 nM,45.6 nM,5%,Activity (CAKI-1 [9]): inactive; IC50 (BT-474): 16.3 nM; Activity (MES-SA [16]): 1.3%; IC50 at 72 h [17]: 29 nM; IC50 (HeLa [18]): 24.6 nM; Activity (MES-SA [19]): 2.3%; Activity (MES-SA [20]): 75.3%; IC50 [21]: 10.6 nM
COc1cc(S(=O)(=O)N(C)c2ccc3c(c2)c(C(N)=O)cn3C)cc(OC)c1OC,12.2 nM,21.3 nM,22.8 nM,4%,14.3 nM,22.7 nM,26 nM,91.8%,13.9 nM,Active,6%,70.8 nM,24.3 nM,44 nM,10%,83.6%,Tde,15 nM,31.8 nM,4.8%,IC50 (BT-474): 17.9 nM; Activity (MES-SA [16]): 1.6%; IC50 at 72 h [17]: 92.2 nM; IC50 (HeLa [18]): 18.2 nM; Activity (MES-SA [19]): 1.8%; Activity (MES-SA [20]): 75.3%; IC50 [21]: 12.2 nM; IC50 (CAKI-1 [22]): 29.6 nM
CN[C@@H]1C[C@H]2O[C@@](C)([C@@H]1OC)n1c3ccccc3c3c4c(c5c6ccccc6n2c5c31)C(=O)NC4,–,–,–,–,–,–,–,–,–,–,–,–,–,–,–,–,–,–,–,–,Activity (MES-SA [23]): Active; Activity (MES-SA [24]): inactive
